Experimental data as given in US20130261241A1, “METHODS FOR CONTROLLING WATER AMOUNT IN A POLYMER COMPOSITION OR SUBSTRATE” (Bendiner Technologies, LLC, priority 2009, published 2013).

SMILES: C/C=C/C=C/C(=O)[O-].[K+] [Potassium sorbate, potassium sorbate]
- change in zeta potential (as potassium sorbate concentration is increased (0.0001% to 10%), no added sodium chloride): less negative
- effect on the zeta potential (concentrations below approximately 0.01%): no effect
